Results: patent publication US20240199605A1, “SMALL MOLECULAR INHIBITORS OF NF-kB INDUCING KINASE” (Janssen Pharmaceutica NV, priority 2019, published 2024)

Assays:
[1] = target: recombinant human NF-kappaB-inducing kinase (NIK/MAP3K14) (Homo sapiens (Human), UniProt Q99558); assay: Inhibition of auto-phosphorylation of recombinant human NIK/MAP3K14 (AlphaScreen); type: biochemical; conditions: NIK auto-phosphorylation, 5 μM ATP, 1 nM NIK, 2 h at 25° C.; average of values
How it was run: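 AlphaScreen read-out (anti-phospho-IKK Ser176/180 antibody, Protein A acceptor and glutathione donor beads) of NIK auto-phosphorylation. Reaction: 1 nM enzyme, 5 μM ATP, Tris pH 7.5 buffer with Mg2+ and vanadate, 2 h at 25° C., final DMSO 0.7%. IC50 came from a sigmoidal curve fit.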

[2] = tested on: p-IKKα levels in L363 (NIK translocated multiple myeloma) cells; assay: Effect of compounds on p-IKKα levels in L363 cells (AlphaLISA SureFire Ultra); type: cell-based, human; conditions: Homo sapiens, L-363, 6 h, BAFF stimulated, MG132, 6 h, average of values, read-out: Assay 2 IC50
How it was run: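 Inhibition of p-IKKα (Ser176/180) read by AlphaLISA after 6 h, 37 °C compound exposure (11-point 1:3 series, 0.3% DMSO) of L363 cells pre-incubated overnight ± 250 ng/ml BAFF and plated ± BAFF ± 10 μM MG132. Normalised to BAFF/MG132/DMSO and unstimulated controls; IC50 by sigmoidal fitting, duplicates.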

Chain of recombinant human NF-kappaB-inducing kinase (NIK/MAP3K14) (Q99558 whole entry): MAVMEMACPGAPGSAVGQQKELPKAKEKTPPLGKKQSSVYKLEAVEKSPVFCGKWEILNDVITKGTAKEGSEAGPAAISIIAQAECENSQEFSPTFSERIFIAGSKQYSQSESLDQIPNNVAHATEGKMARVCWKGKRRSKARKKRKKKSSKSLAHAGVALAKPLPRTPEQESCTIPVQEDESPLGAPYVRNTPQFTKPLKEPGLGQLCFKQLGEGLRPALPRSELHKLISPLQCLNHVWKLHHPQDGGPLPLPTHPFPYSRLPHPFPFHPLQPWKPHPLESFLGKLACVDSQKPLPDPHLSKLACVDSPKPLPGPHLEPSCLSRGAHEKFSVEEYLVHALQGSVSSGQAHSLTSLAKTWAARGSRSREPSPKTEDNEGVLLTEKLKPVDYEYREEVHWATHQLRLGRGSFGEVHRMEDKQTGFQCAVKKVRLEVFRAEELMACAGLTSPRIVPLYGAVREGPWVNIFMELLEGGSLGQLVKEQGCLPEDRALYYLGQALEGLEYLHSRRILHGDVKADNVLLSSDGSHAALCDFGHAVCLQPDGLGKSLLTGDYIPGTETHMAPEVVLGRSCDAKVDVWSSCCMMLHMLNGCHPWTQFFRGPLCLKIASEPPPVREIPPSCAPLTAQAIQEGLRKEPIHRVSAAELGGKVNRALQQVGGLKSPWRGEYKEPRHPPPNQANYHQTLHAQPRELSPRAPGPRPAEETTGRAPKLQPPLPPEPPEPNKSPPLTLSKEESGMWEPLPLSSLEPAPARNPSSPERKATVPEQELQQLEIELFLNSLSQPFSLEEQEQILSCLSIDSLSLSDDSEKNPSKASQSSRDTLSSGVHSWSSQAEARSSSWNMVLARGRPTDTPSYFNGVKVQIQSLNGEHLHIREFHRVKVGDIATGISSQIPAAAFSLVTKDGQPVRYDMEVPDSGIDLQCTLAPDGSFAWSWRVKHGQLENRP

SMILES	IC50 [1] [µM]	IC50 [2] [µM]
CN1CC[C@@](O)(C#Cc2cccc(-c3nc4c(N)ncnc4s3)c2)C1=O [Example 101, (R)-3-((3-(7-Aminothiazolo[5,4-d]pyrimidin-2-yl)phenyl)ethynyl)-3-hydroxy-1-methylpyrrolidin-2-one]	0.0012	0.026
CN1CC[C@](O)(C#Cc2cccc(-c3ncc4ccnc(N)c4n3)c2)C1=O [Example 2, (S)-3-[2-[3-(8-Aminopyrido[3,4-d]pyrimidin-2-yl)phenyl]ethynyl]-3-hydroxy-1-methyl-pyrrolidin-2-one]	0.16	> 5
CN1CC[C@@](O)(C#Cc2cccc(-c3cc(Oc4cnn(C(F)F)c4)c4ncnc(N)c4n3)c2)C1=O [Example 305, (R)-3-[2-[3-[4-Amino-8-[1-(difluoromethyl)pyrazol-4-yl]oxy-pyrido[3,2-d]pyrimidin-6-yl]phenyl]ethynyl]-3-hydroxy-1-methyl-pyrrolidin-2-one]	0.0022	0.064
Cc1cnc(N)c2nc(-c3cccc(C#C[C@]4(O)CCc5cccnc54)c3)ncc12 [Example 62, (R)-7-((3-(8-Amino-5-methylpyrido[3,4-d]pyrimidin-2-yl)phenyl)ethynyl)-6,7-dihydro-5H-cyclopenta[b]pyridin-7-ol]	≤ 0.0005	0.022
[2H]C([2H])([2H])c1cc(-c2cccc(C#C[C@]3(O)CCN(C)C3=O)c2)nc2c(N)ncnc12 [Example 286, (R)-3-((3-(4-Amino-8-(methyl-da)pyrido[3,2-d]pyrimidin-6-yl)phenyl)ethynyl)-3-hydroxy-1-methylpyrrolidin-2-one]	0.0009	0.0031
CN1CC[C@@](O)(C#Cc2cccc(-c3ccc4ccnc(N)c4c3)c2)C1=O [Example 36, (R)-3-[2-[3-(1-Amino-7-isoquinolyl)phenyl]ethynyl]-3-hydroxy-1-methyl-pyrrolidin-2-one]	0.0019	0.2
CN1CC[C@@](O)(C#Cc2cccc(-c3cn4cncc4c(=O)[nH]3)c2)C1=O [Example 218, (R)-6-[3-[2-(3-Hydroxy-1-methyl-2-oxo-pyrrolidin-3-yl)ethynyl]phenyl]-7H-imidazo[1,5-a]pyrazin-8-one]	0.078	> 5
CN1CC[C@@](O)(C#Cc2cccc(-c3ncc4c(-c5cnn(CCCC#N)c5)cnc(N)c4n3)c2)C1=O [Example 140, (R)-4-[4-[8-Amino-2-[3-[2-(3-hydroxy-1-methyl-2-oxo-pyrrolidin-3-yl)ethynyl]phenyl]pyrido[3,4-d]pyrimidin-5-yl]pyrazol-1-yl]butanenitrile]	≤ 0.0005	0.0062
CN1CC[C@@](O)(C#Cc2cccc(-c3ccc4ncnc(N5CCCC5)c4n3)c2)C1=O [Example 222, (R)-3-Hydroxy-1-methyl-3-((3-(4-(pyrrolidin-1-yl)pyrido[3,2-d]pyrimidin-6-yl)phenyl)ethynyl)pyrrolidin-2-one]	0.0042	0.39
Cc1ccc(C#C[C@]2(O)CCN(C)C2=O)cc1-c1nc2c(N)ncnc2s1 [Example 10, (R)-3-((3-(7-Aminothiazolo[5,4-d]pyrimidin-2-yl)-4-methylphenyl)ethynyl)-3-hydroxy-1-methylpyrrolidin-2-one]	≤ 0.0005	0.0081
CN1CC[C@@](O)(C#Cc2cccc(-c3ncc4c(Cl)cnc(N)c4n3)c2)C1=O [Example 103, (R)-3-((3-(8-Amino-5-chloropyrido[3,4-d]pyrimidin-2-yl)phenyl)ethynyl)-3-hydroxy-1-methylpyrrolidin-2-one]	≤ 0.0005	0.0058
Cc1nc(N)c2nc(-c3cccc(C#C[C@@](C)(O)c4nccs4)c3)ccc2n1 [Example 164, (R)-4-(3-(4-Amino-2-methylpyrido[3,2-d]pyrimidin-6-yl)phenyl)-2-(thiazol-2-yl)but-3-yn-2-ol]	0.0007	0.078
CN1CC[C@@](C#Cc2cccc(-c3ccc4ncnc(N)c4n3)c2)(C(F)F)C1=O [Example 205, (S)-3-((3-(4-Aminopyrido[3,2-d]pyrimidin-6-yl)phenyl)ethynyl)-3-(difluoromethyl)-1-methylpyrrolidin-2-one]	4.88	> 5
CN1CC[C@@](O)(C#Cc2cccc(-c3cc4c(N)nccc4cn3)c2)C1=O [Example 119, (R)-3-[2-[3-(5-Amino-2,6-naphthyridin-3-yl)phenyl]ethynyl]-3-hydroxy-1-methyl-pyrrolidin-2-one]	0.0007	0.043
CN1CC[C@@](O)(C#Cc2ccc(OC(F)(F)F)c(-c3ncc4ccnc(N)c4n3)c2)C1=O [Example 56, (R)-3-((3-(8-Aminopyrido[3,4-d]pyrimidin-2-yl)-4-(trifluoromethoxy)phenyl)ethynyl)-3-hydroxy-1-methylpyrrolidin-2-one]	0.002	0.036
Cc1nc(-c2cccc(C#C[C@]3(O)CCN(C)C3=O)c2)nc2c(N)nccc12 [Example 37, (R)-3-((3-(8-Amino-4-methylpyrido[3,4-d]pyrimidin-2-yl)phenyl)ethynyl)-3-hydroxy-1-methylpyrrolidin-2-one]	0.0006	0.035
CN1CC[C@](O)(C#Cc2cccc(-c3cc(C4CCOCC4)c4ncnc(N)c4n3)c2)C1=O [Example 256, (S)-3-((3-(4-Amino-8-(tetrahydro-2H-pyran-4-yl)pyrido[3,2-d]pyrimidin-6-yl)phenyl)ethynyl)-3-hydroxy-1-methylpyrrolidin-2-one]	0.35	4.15
Cc1cc(-c2cccc(C#C[C@]3(O)CCN(C)C3=O)c2)cc2c(N)ncnc12 [Example 110, (R)-3-((3-(4-Amino-8-methylquinazolin-6-yl)phenyl)ethynyl)-3-hydroxy-1-methylpyrrolidin-2-one]	≤ 0.0005	0.011
Cc1nc(N)c2nc(-c3cccc(C#C[C@]4(O)C(=O)N(C)[C@H]5C[C@H]54)c3)ccc2n1 [Example 274, (1S,4S,5R)-4-((3-(4-Amino-2-methylpyrido[3,2-d]pyrimidin-6-yl)phenyl)ethynyl)-4-hydroxy-2-methyl-2-azabicyclo[3.1.0]hexan-3-one]	1.93	> 5
CN1CC[C@@](O)(C#Cc2cccc(-c3cc(N4CC5(C4)CC5(F)F)c4ncnc(N)c4n3)c2)C1=O [Example 307, (R)-3-[2-[3-[4-Amino-8-(2,2-difluoro-5-azaspiro[2.3]hexan-5-yl)pyrido[3,2-d]pyrimidin-6-yl]phenyl]ethynyl]-3-hydroxy-1-methyl-pyrrolidin-2-one]	0.0016	0.04
CN1CC[C@@](O)(C#Cc2cccc(-c3cc(NC4CC4)c4ncnc(N)c4n3)c2)C1=O [Example 298, (R)-3-[2-[3-[4-Amino-8-(cyclopropylamino)pyrido[3,2-d]pyrimidin-6-yl]phenyl]ethynyl]-3-hydroxy-1-methyl-pyrrolidin-2-one]	0.0008	0.024
Cc1nc(N)c2nc(-c3cccc(C#C[C@@]4(O)C(=O)N(C)C[C@H]4C)c3)ccc2n1 (stereo in doubt) [Example 292, (3R,4R*)-3-((3-(4-Amino-2-methylpyrido[3,2-d]pyrimidin-6-yl)phenyl)ethynyl)-3-hydroxy-1,4-dimethylpyrrolidin-2-one]	0.022	0.66
CN1CC[C@@](O)(C#Cc2cccc(N3CCc4ncnc(N)c4C3)c2)C1=O [Example 159, (R)-3-((3-(4-Amino-7,8-dihydropyrido[4,3-d]pyrimidin-6(5H)-yl)phenyl)ethynyl)-3-hydroxy-1-methylpyrrolidin-2-one]	0.0013	0.13
[2H]c1nc(N)c2nc(-c3cccc(C#CC4(O)CCN(CC=C)C4=O)c3)ccc2n1 (racemic) [Example 196, racemic-1-Allyl-3-((3-(4-aminopyrido[3,2-d]pyrimidin-6-yl-2-d)phenyl)ethynyl)-3-hydroxypyrrolidin-2-one]	0.0044	0.25
CN1CC[C@@](O)(C#Cc2cccc(-c3ccc4ncnc(N5CCC5)c4n3)c2)C1=O [Example 26, (R)-3-((3-(4-(Azetidin-1-yl)pyrido[3,2-d]pyrimidin-6-yl)phenyl)ethynyl)-3-hydroxy-1-methylpyrrolidin-2-one]	0.0012	0.058
CN1CC[C@@](O)(C#Cc2cccc(-c3cc(OC4CC4)c4ncnc(N)c4n3)c2)C1=O [Example 304, (R)-3-[2-[3-[4-Amino-8-(cyclopropoxy)pyrido[3,2-d]pyrimidin-6-yl]phenyl]ethynyl]-3-hydroxy-1-methyl-pyrrolidin-2-one]	0.0006	0.015
CN1CC[C@@](O)(C#Cc2cccc(-c3ccc4ncnc(N5CC(C)(C)C5)c4n3)c2)C1=O [Example 226, (R)-3-((3-(4-(3,3-Dimethylazetidin-1-yl)pyrido[3,2-d]pyrimidin-6-yl)phenyl)ethynyl)-3-hydroxy-1-methylpyrrolidin-2-one]	0.042	1.4
Cc1ccc(-c2nc3c(N)ncnc3s2)cc1C#C[C@]1(O)CCN(C)C1=O [Example 152, (R)-3-((5-(7-Aminothiazolo[5,4-d]pyrimidin-2-yl)-2-methylphenyl)ethynyl)-3-hydroxy-1-methylpyrrolidin-2-one]	0.0038	0.2
